Key:
[1] = test system: IL-1β cytokine output from THP-1s; test: THP-1 AlphaLISA IL-1β cytokine assay; type: cell-based, human; details: Homo sapiens, THP-1, PMA-differentiated THP-1 cells, LPS 24 hr then Nigericin 1 hour; read-out: IL-1β (IC50)
In short: (§1)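 PMA-differentiated (72 h) THP-1 cells pretreated 30 min with compound, LPS-stimulated 24 h, then nigericin 1 h at 37 °C. Supernatant IL-1β and IL-6 by AlphaLISA; % inhibition normalised to ±LPS controls, IC50 from concentration-response curves.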

[2] = test system: IL-6 cytokine output from THP-1s; test: THP-1 AlphaLISA IL-6 cytokine assay; type: cell-based, human; details: Homo sapiens; PMA-differentiated THP-1 cells, LPS 24 hr then Nigericin 1 hour
In short: as §1

NQO1 = NQO1 enzyme activation assay as a readout of NRF2 activation in THP-1 cells; type: cell-based; details: Homo sapiens; for Emax: THP-1, percentage activation at top concentration, normalised to DMF (100%) and vehicle controls; for EC50: differentiated THP-1 cells, LPS, 48 hr
Procedure: NQO1 Enzyme Activation Assay as a Readout of NRF2 Activation in THP-1 Cellular Background
NAD(P)H dehydrogenase [quinone] […] Induction of this gene is concomitant with the inhibition of proinflammatory cytokine transcription and suppression of the inflammatory response (Kobayashi E. H. et al., 2016). The NQO1 enzyme activation activities of compounds of formula (IW-1) were determined using a cellular based NQO1 activation assay (Abcam). The NQO1 activation assay was run in differentiated THP-1 cells (a human monocyte-like cell line) as described below. All reagents described are from Sigma-Aldrich unless specified otherwise. Compounds were prepared as 10 mM DMSO stocks.
THP-1 cells were expanded as a suspension up to 80% confluence in appropriate growth medium. Cells were harvested, suspended, treated with phorbol 12-myristate 13-acetate (PMA) and plated according to the cell density required for each plate format over a 72 hr period (37° C./5% CO2).
Following 72 hrs of THP-1 cell incubation, cellular medium was removed and replaced with fresh media. Working concentrations of compounds were prepared and pre-incubated for 30 minutes (37° C./5% CO2). Compound treatment was then applied to the PMA treated THP-1 cell plate followed by LPS treatment. A ‘low’ (DMSO vehicle only) control and ‘high’ (designated concentration of dimethyl fumarate) was applied to each plate at the point of compound treatment. Cells were subsequently incubated for a 48 hr period (37° C./5% C02) after which all NQO1 assay reagents were prepared according to the manufacturer's instructions. NQO1 extraction buffer was applied to PBS washed THP-1 cells and incubated on ice for 15 minutes to prepare THP-1 lysates for the NQO1 activity assay. THP-1 lysates were diluted 1:5 with PBS and treated with a 1:1 volume of kit prepared NQO1 Reaction Buffer. Absorbance was subsequently measured kinetically on an appropriate reader over a 6 minute period.
For activation determination, the fold change in response per well was determined by first calculating the average NQO1 activation data for the vehicle control and then dividing the individual well response by the averaged NQO1 response for the vehicle control as shown below: Fold change=(Sample value)/MeanMin Where ‘Min’=vehicle control only
The relative 50% activation concentration (EC50) was determined from the resulting fold change response curve. The maximum efficacy (Emax) was reported as the percentage activation calculated at the top concentration of compound used in the titration applied. If a full curve was unattainable preventing a correct curve fit, the Emax value was extrapolated using existing curve data. All percentage activation data were normalised to the DMF and vehicle controls, meaning the Emax represents the percentage […] achieved by a compound at a particular concentration relative to that achieved by DMF (set as the ‘High’ control and therefore representative of 100% activation).

NRF2 = NRF2 +/-GSH activation assay (DiscoverX PathHunter NRF2 translocation kit, U2OS cells); type: cell-based; details: Homo sapiens, GSH condition not stated in Table 5; for Emax: U2OS, normalised to dimethyl fumarate 'High' control, read-out: NRF2 activation Emax; for EC50: U2OS PathHunter cells, 6 hours, read-out: NRF2 activation EC50
In short: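 PathHunter U2OS cells, plated 24 hrs, measured NRF2 nuclear translocation by enzyme-fragment complementation luminescence after 6 hours compound exposure at 37 °C. For +GSH, compound was pre-incubated 30 minutes with GSH (6 mM working stock). EC50 from % activation normalised to dimethyl fumarate high control.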

SMILES | IC50 [1] [µM] | IC50 [2] [µM] | EC50 (NQO1) [µM] | EC50 (NRF2) [µM] | Emax (NQO1) [%] | Emax (NRF2) [%]
C=C(CC(=O)OCCCC)C(=O)OCCS(C)(=O)=O [Example 7, 4-butyl 1-(2-(methylsulfonyl)ethyl) 2-methylenesuccinate] | 16.7 | 12 | 7.3 | – | 78 | –
C=C(CC(=O)OC)C(=O)OCCC#N [Example 10, 1-(2-cyanoethyl) 4-methyl 2-methylenesuccinate] | 27.9 | 7.6 | 15.2 | – | 107 | –
C=C(CC(=O)OCCCCCC)C(=O)OCCC#N [Example 11, 1-(2-cyanoethyl) 4-hexyl 2-methylenesuccinate] | 3.7 | – | 10.4 | – | 124 | –
C=C(CC(=O)OCCCCCCCC)C(=O)OCCS(=O)(=O)N(C)C [Example 16, 1-(2-(N,N-dimethylsulfamoyl)ethyl) 4-octyl 2-methylenesuccinate] | 1.7 | 1.1 | 19.8 | – | 108 | –
C=C(CC(=O)OCCCCCCCC)C(=O)OCCN(C)C [Example 17, 1-(2-(dimethylamino)ethyl) 4-octyl 2-methylenesuccinate] | 1.5 | 1.4 | 2.6 | – | 68 | –
C=C(CC(=O)OCCCCCCCC)C(=O)OC(C)CS(C)(=O)=O (stereo not drawn) [Example 19, 1-(1-(methylsulfonyl)propan-2-yl) 4-octyl 2-methylenesuccinate] | 3.6 | 1.9 | 51 | – | 44 | –
C=C(CC(=O)OCCCCCC)C(=O)OC1COC1 [Example 38, 4-hexyl 1-(oxetan-3-yl) 2-methylenesuccinate] | 7.4 | 6.8 | 8.5 | – | 111 | –
C=C(CC(=O)OCCCC)C(=O)OCCS(=O)(=O)c1ccc(C)cc1 [Example 39, 4-butyl 1-(2-tosylethyl) 2-methylenesuccinate] | 5.1 | 7.3 | 1.3 | – | 59 | –
C=C(CC(=O)OC1COC1)C(=O)OC1COC1 [Example 44, di(oxetan-3-yl) 2-methylenesuccinate] | – | – | 64.6 | – | 217 | –
C=C(CC(=O)OCCCCCCCC)C(=O)OC1CCC1 [Example 45, 1-cyclobutyl 4-octyl 2-methylenesuccinate] | – | – | 1.6 | – | 72 | –

More lines, in order of falling EC50 (NQO1), values ahead:

IC50 [1] [µM] | IC50 [2] [µM] | EC50 (NQO1) [µM] | EC50 (NRF2) [µM] | SMILES | Emax (NQO1) [%] | Emax (NRF2) [%]
12.8 | 12.1 | 30.6 | – | C=C(CC(=O)OCCCCCCCC)C(=O)OCCC(=O)N(C)C [Example 6, 1-(3-(dimethylamino)-3-oxopropyl) 4-octyl 2-methylenesuccinate] | 154 | –
28.2 | 11.3 | 22.7 | – | C=C(CC(=O)OC)C(=O)OCCS(C)(=O)=O [Example 12, 4-methyl 1-(2-(methylsulfonyl)ethyl) 2-methylenesuccinate] | 88 | –
5.6 | 3.4 | 20 | 13.5 | C=C(CC(=O)OCCCOc1ccccc1)C(=O)OCCS(C)(=O)=O [Example 20, 1-(2-(methylsulfonyl)ethyl) 4-(3-phenoxypropyl) 2-methylenesuccinate] | 224 | 116
1.7 | 3.4 | 16.6 | – | C=C(CC(=O)OCCCCCCCC)C(=O)OCCS(=O)(=O)c1ccc(C)cc1 [Example 40, 4-octyl 1-(2-tosylethyl) 2-methylenesuccinate] | 56 | –
1.6 | 2.1 | 14.4 | 8.8 | C=C(CC(=O)OCCCCCC)C(=O)OCCS(C)(=O)=O [Example 14, 4-hexyl 1-(2-(methylsulfonyl)ethyl) 2-methylenesuccinate] | 180 | 189
2.9 | 2.4 | 12.1 | – | C=C(CC(=O)OCCCCCCCC)C(=O)OCC(=O)N(C)C [Example 21, 1-(2-(dimethylamino)-2-oxoethyl) 4-octyl 2-methylenesuccinate] | 150 | –
6.5 | 2 | 5.9 | 5.7 | C=C(CC(=O)OCCCCCCCC)C(=O)OCCN1CCCC1=O [Example 5, 4-octyl 1-(2-(2-oxopyrrolidin-1-yl)ethyl) 2-methylenesuccinate] | 81 | 216
